In one experiment the test system is A549. Kind of experiment: Growth inhibition of human A549 cells after 48 hrs by sulforhodamine B assay. In kind it is functional. The settings on record: A549, 48 h. Background: Sulforhodamine B stains cellular protein and so reports cell mass.
Experiment [1] can be described thus: Inhibition of TNF-alpha-induced NFkappaB nuclear translocation in human A549 cells preincubated for 30 mins before TNFalpha challenge and measured 30 post TNFalpha challenge by fluorescence method. In kind it is cell-based.

Broadly, the GI50 is the concentration at which growth is held to half of that of the control. In general, IC50 refers to the concentration that inhibits the measured activity by half. Low readings indicate higher potency, high ones lower potency. Take `COc1cc(/C=C/C(=O)/C=C/c2cc(OC)c(OC)c(OC)c2)cc(OC)c1OC`: the GI50 in the experiment with A549 is 550 nM. In addition, the 50% inhibitory concentration (IC50) in experiment [1] was found to be 7900 nM.

In the experiment on A549, `COc1ccc(/C=C/C(=O)C(=Cc2ccc(O)c(OC)c2)C(=O)/C=C/c2ccc(OC)cc2)cc1` registered a concentration for 50% growth inhibition (GI50) of 1640 nM. The midpoint of inhibition in experiment [1], the IC50, lay at 3000 nM.

In the experiment on A549, `COc1ccc(/C=C/C(=O)C(=Cc2ccc(N(C)C)cc2)C(=O)/C=C/c2ccc(OC)c(OC)c2)cc1OC` displayed a GI50 of 2620 nM. Besides, the half-maximal inhibitory concentration (IC50) in experiment [1] was more than 40000 nM.

In the experiment on A549, `COc1ccc(/C=C/C(=O)/C=C/c2cc(OC)c(OC)c(OC)c2)cc1OC` displayed a concentration for 50% growth inhibition (GI50) of 1210 nM. It took 9000 nM to reach half-maximal inhibition in experiment [1] (IC50).

In turn, `COc1ccc(/C=C/C(=O)/C=C(O)/C=C/c2ccc(OC)cc2)cc1` yielded a GI50 with A549 of more than 25000 nM. For the same compound, in experiment [1], the IC50 was more than 40000 nM.

With `COc1cc(/C=C/C(=O)C(=Cc2ccc(OC)c(OC)c2)C(=O)/C=C/c2ccc(O)c(OC)c2)ccc1O`, the GI50 in the experiment with A549 stood at 430 nM. The same compound yielded a concentration for half-maximal inhibition (IC50) in experiment [1] of more than 40000 nM.

In the experiment with A549, `Cc1ccc(/C=C/C(=O)/C=C(O)/C=C/c2ccc(C)o2)o1` came in with a GI50 of more than 25000 nM. Also, 8500 nM corresponded to half-maximal inhibition in experiment [1] (IC50).

As for `COc1cc(/C=C/C(=O)C(=Cc2cccc(F)c2)C(=O)/C=C/c2ccc(O)c(OC)c2)ccc1O`, halving of growth in the experiment on A549 (GI50) required 360 nM. Half-maximal inhibition in experiment [1] (IC50) was put at 1400 nM.

As to `COc1ccc(C=C(C(=O)/C=C/c2ccc(OC)c(OC)c2)C(=O)/C=C/c2ccc(OC)c(OC)c2)cc1OC`, in the experiment on A549, halving of growth (GI50) required 310 nM. Further, the IC50 in experiment [1] was determined as 1500 nM.

`COc1cccc(C=C(C(=O)/C=C/c2ccc(O)c(OC)c2)C(=O)/C=C/c2ccc(O)c(OC)c2)c1`: in the experiment on A549, the GI50 was 640 nM. Besides, 1300 nM corresponded to half-maximal inhibition in experiment [1] (IC50).

The values above are taken from ChEMBL document CHEMBL1799938, “Synthesis and identification of new 4-arylidene curcumin analogues as potential anticancer agents targeting nuclear factor-κB signaling pathway” (J Med Chem, 2010).
